The NIST ThermoML archive (doi:10.1016/j.fluid.2018.07.018)
Numbers after ± are expanded uncertainties.

Conditions: Crystal; DTA

Normal melting temperature: 82.00 ± 1.1 °C
SMILES: CC(C)OC(=O)C(C)(C)Oc1ccc(C(=O)c2ccc(Cl)cc2)cc1 [fenofibrate]
